Laboratory results as given in patent publication US9725430B2, “Use of small molecule inhibitors targeting EYA tyrosine phosphatase” (Children's Hospital Medical Center, priority 2013, dated 2017).
Each block holds one compound with its values, some of them ahead of it.

What was measured:
HUVECs [1] = assay: HUVEC transwell migration; type: cell-based, human; details: 5 μM
From the text: (§1) In order to determine whether EYA3 knock down would affect cell migration, a modified Boyden chamber assay was used to measure HUVEC migration. Briefly, human umbilical vein endothelial cells (HUVECs) were purchased from Lonza (Walkersville, Md.) and maintained in the endothelial cell growth medium (PromoCell, Hleidelberg, Germany), under a 5% CO2 atmosphere. MCF10A cells from ATCC were stably transfected with either pcDNA 3.2N5-DEST (vector control), V5-EYA2 or V5-EYA2(D250N). Transwell migration experiments were performed as previously described (Pandey, R. N. et al. Oncogene 29, 3715-3722, (2010)).

[2] = system: developing zebrafish vasculature; assay: Zebrafish model of angiogenesis; type: in vivo; details: exposure from 5.25 hpf, analysis at 24 hpf; compound 1 at 0.25 μM
Description: Embryos (FLK1-GFP trangenic) were maintained in fish water until the 50% epiboly stage (5.25 hpf) and were transferred into wells of 24-well plate containing the inhibitors in fish water. The analysis for vascular defects was performed after the 24 hpf stage, and embryos were imaged using a fluorescence microscope.
Transgenic fish expressing EGFP in endothelial cells (Tg(flk1:EGFP)) were used to facilitate visualization of the developing vasculature. In control experiments embryos were treated with 0.1% DMSO (vehicle). At the time of analyses (24 hpf) developing vessels normally migrated from the lateral plate mesoderm to the midline and formed the vascular cord, subsequently forming the dorsal aorta and the posterior cardinal vein and followed by the formation of intersegmental vessels at designated branch points (FIG. 6b).

HUVECs [3] = assay: HUVEC cell viability assay (WST-8); type: cell-based, human; details: 3 days of exposure
Description: Additionally, a cell viability assay was conducted over 3 days of exposure to test compounds 1, 1a and 1g in order to assess both the possibility of immediate cellular toxicity as well as any effect on cell proliferation. HUVECs were seeded and equilibrated for 24 hours before addition of the test compounds. Cellular metabolic activity was measured at defined time-points using the tetrazolium dye WST-8 to quantify NAD(P)H-dependent cellular oxidoreductase enzyme activity.

EYA3 = EYA3 (Homo sapiens (Human), UniProt Q99504); assay: pNPP assay, full-length human recombinant EYA3; type: biochemical
EYA3, sequence (Q99504 127-573): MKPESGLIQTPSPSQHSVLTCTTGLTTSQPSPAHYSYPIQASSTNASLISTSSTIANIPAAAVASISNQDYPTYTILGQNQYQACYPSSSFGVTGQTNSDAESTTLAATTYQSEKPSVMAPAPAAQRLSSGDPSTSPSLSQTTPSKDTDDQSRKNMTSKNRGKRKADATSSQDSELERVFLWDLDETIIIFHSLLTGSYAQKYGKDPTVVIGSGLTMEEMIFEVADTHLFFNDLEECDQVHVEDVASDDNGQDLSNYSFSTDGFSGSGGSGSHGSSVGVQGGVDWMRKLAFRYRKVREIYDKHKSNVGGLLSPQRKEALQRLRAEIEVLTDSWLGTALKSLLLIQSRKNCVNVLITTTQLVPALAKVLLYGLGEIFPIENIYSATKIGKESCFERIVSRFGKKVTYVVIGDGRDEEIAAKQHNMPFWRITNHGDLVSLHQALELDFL
From the text: The catalytic domain of mouse Eya3 (“ED”, comprising residues 223-510 of Eya3) was purified as described by Rayapureddi, J. P. et al. (FEBS Lett 580, 3853-3859 (2006), incorporated by reference in its entirety). For full-length Eya3 (“hEYA3”), human Eya3 isoform 2 (representing the major species identified in human cell lines by mass spectrometry, expressed as residues 127-573 of NM_001990, isoform 1) was sub-cloned into pDEST565 to express a poly-histidine-Glutathione-S-transferase (His-GST) tagged fusion protein with a TVMV protease site. The protein was purified by glutathione-S-transferase affinity chromatography followed by TVMV cleavage, Ni-NTA chromatography, and finally size exclusion chromatography. […]
The compounds were then tested using full-length human recombinant, purified EYA3 and pNPP as a substrate. Compounds were dissolved in DMSO and diluted as needed. […] Reactions were incubated at 30° C. for 30 minutes and quenched with 100 mM EDTA pH 10. IC50 values were then calculated directly from regression curves using PRISM software. All reported values are the mean of two independent experiments.

mouse aortic rings = assay: Aortic ring sprouting assay; type: cell-based; details: 5 μM, 10 days
Description: Additionally, the effect of compounds 1d, 1f, 1h, 1i, 1g, 2 and 2a on cell proliferation, migration, tube formation, micro-vessel branching, and perivascular recruitment using an aortic ring sprouting assay. When slices of mouse aorta are cultured in collagen gels there is typically a lag phase for the first 4 days followed by linear sprouting of endothelial cells. By day 6, branching is observed. All the test compounds were initially assayed at 7.5 μM and the number of branch-points counted. When there was a severe effect (no visible sprouting), or when there was no apparent effect, other doses were tested to establish a dose-dependence. All of the compounds assayed were able to attenuate aortic ring sprouting. There was a strong reduction in initial sprouting and some attenuation of branching. With the exception of 2a, in all cases where there was sprouting, the length of sprouts was shorter than in the controls.
Endothelial cell migration can also be studied […] using the aortic ring assay in which sprouting angiogenesis is monitored by the formation of vascular sprouts outside the wall of mouse aortic rings incubated in collagen matrix and stimulated by VEGF (Gerhardt, H., et al. EXS, 3-15 (2005), hereby incorporated by reference in its entirety). Briefly, mice were obtained from the Cincinnati Children's veterinary service and handled according to the institutional animal care and use protocol. […] Mice were 4 to 6 weeks old female C57BL16, and aortic ring explants were cultured at 37° C. in a humidified incubator under a 5% CO2 atmosphere.
Each inhibitor was serially diluted (between 0.25 mM and 7.5 mM) to stocks of 1000× the working concentrations in sterile 100% DMSO in order to achieve an equal final concentration of DMSO (0.1% v/v) in all culture conditions. For the experiments, the compounds were diluted in EBM containing 2.5% FBS, penicillin/streptomycin and 20 ng/ml VEGF165 (R&D Systems, Minneapolis, Minn.). Each compound was applied from the first day of culture over a 10-day period with medium change every two days. In all experiments, the vehicle (DMSO, 0.1%) was used as control. The sprouting density was derived from counting the number of branches per ring, and the extent of angiogenic sprouting was estimated by measuring the total surface area covered by the vessels as illustrated in FIG. 7.

retinal vasculature = assay: Mouse model of oxygen-induced retinopathy; type: in vivo, mice; details: 100 or 50 pmoles injected at P12, analyzed at P16
From the text: The mouse model of oxygen-induced retinopathy mimics the retinopathy characteristic of proliferative retiopathy conditions such as retinopathy of prematurity and diabetic retinopathy. […] The resulting retinal hypoxia after day 12, when pups were brought back to 20% O2, induced excessive hypoxia-driven angiogenesis. A characteristic large avascular area at the center of the retina and excessive regrowth of superficial vessels (pre-retinal neovascular tufts) in the mid-peripheral region was observed. […] In contrast, inhibition of either Vegf or Vegfr2 in OIR experiments suppresses both neovascular tuft formation and revascularization.

MCF10A(EYA2) cells = assay: Transwell migration of MCF10A-EYA2 cells; type: cell-based; details: 7.5 μM
From the text: The tyrosine phosphatase activity of Eya3 and Eya2 promotes single cell motility in breast cancer cells (Pandey, R. N. et al. Oncogene (2010) 29:3715-3722, incorporated by reference in its entirety). EYA2 is over-expressed in breast cancers and is associated with increased metastasis and a poorer outcome (Farabaugh, et al. Oncogene (2011) 259). […] Overexpression of EYA2, but not the tyrosine-phosphatase dead mutant, promoted cell motility (FIG. 2a). […] This effect was dose-dependent (FIG. 2d) and compound (1a) was able to reduce cell motility by over 50% at the lowest concentration (1 μM) tested.
as §1

HUVECs [4] = assay: HUVEC proliferation (MTT); type: cell-based, human; details: 5 μM, 24 hours

inhibitory effect in presence of detergent (EYA3; 0.01% Triton X-100): retained | mode of inhibition (substrate titration) (EYA3; increasing substrate concentration): not a competitive inhibitor
SMILES: CCc1oc2ccccc2c1C(=O)c1cc(Br)c(O)c(Br)c1 [Compound 1, Benzbromarone, reference compound]
HUVEC cell motility (HUVECs [1]): attenuated HUVEC cell motility | intersegmental vessels in zebrafish embryos [2]: significant reduction of intersegmental vessels | cell viability (HUVECs [3]): reduced cell viability | sprout length and microvascular density of aortic rings (mouse aortic rings): shorter sprouts and significantly lower microvascular density | formation of neovascular tufts (retinal vasculature): Significant reduction in the formation of neovascular tufts | cell migration (MCF10A(EYA2) cells): significantly inhibited cell migration | HUVEC cell proliferation (HUVECs [4]): no effect on cell proliferation

IC50 (EYA3; pNPP substrate, full-length EYA3): 17 µM
SMILES: CCc1oc2ccccc2c1C(=O)c1ccc(O)cc1 [Compound 1a]
HUVEC cell motility (HUVECs [1]): attenuated HUVEC cell motility | intersegmental vessels in zebrafish embryos [2]: reduced the number of intersegmental vessels, but were less potent | cell viability (HUVECs [3]): reduced cell viability | sprout length and microvascular density of aortic rings (mouse aortic rings): shorter sprouts and significantly lower microvascular density | formation of neovascular tufts (retinal vasculature): Significant reduction in the formation of neovascular tufts | cell migration (MCF10A(EYA2) cells): significantly inhibited cell migration | HUVEC cell proliferation (HUVECs [4]): no effect on cell proliferation
